Measurements as given in patent US20230012172A1, “COMPOSITIONS AND METHODS FOR TREATMENT OF PLATINUM-BASED CHEMOTHERAPEUTIC RESISTANT TUMORS” (The George Washington University, priority 2020, published 2023).
Changes are numbered by the printed parent chain. Where two headings read alike, the source gives them in different places.

Legend:
SENP1-C603A = target: T1, SENP1-C603A (Homo sapiens, UniProt Q9P0U3, C603A); experiment: In vitro thermal shift assay with mutant SENP1-C603A; type: binding; conditions: purified mutant SENP1-C603A
T1 construct: made in house; host or cells: E. coli implied (pGEX-4T1 vector)
T1 sequence (Q9P0U3 1-644 C603A): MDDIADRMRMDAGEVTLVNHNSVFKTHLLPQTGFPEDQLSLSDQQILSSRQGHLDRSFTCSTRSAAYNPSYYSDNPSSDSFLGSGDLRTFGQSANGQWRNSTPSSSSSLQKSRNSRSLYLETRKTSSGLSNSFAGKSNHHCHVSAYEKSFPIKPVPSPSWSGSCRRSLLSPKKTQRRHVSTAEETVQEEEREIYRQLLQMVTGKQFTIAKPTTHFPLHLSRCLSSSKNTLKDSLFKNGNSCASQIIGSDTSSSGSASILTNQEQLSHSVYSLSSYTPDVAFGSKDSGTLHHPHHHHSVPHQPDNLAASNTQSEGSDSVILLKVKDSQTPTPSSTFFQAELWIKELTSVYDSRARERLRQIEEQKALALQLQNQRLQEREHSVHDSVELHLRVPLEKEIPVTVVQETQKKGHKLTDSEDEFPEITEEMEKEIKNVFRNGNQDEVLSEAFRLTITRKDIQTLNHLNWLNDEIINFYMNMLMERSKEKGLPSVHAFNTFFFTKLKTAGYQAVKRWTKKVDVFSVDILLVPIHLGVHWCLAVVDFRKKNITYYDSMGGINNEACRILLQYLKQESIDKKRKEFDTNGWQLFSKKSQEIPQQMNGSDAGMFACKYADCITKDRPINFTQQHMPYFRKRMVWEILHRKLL

SENP1 = target: T2, SENP1 (Homo sapiens, UniProt Q9P0U3); experiment: In vitro deSUMOylation assay with recombinant His-JAK2 and GST-SENP1; type: biochemical; set-up: made in house; host or cells: E. coli BL21 (DE3) for pET28a-JAK2
T2 sequence (Q9P0U3 1-644): T1 sequence (Q9P0U3 1-644 C603A) with A603C
Protocol: To further determine whether SENP1 can directly deSUMOylate JAK2, in vitro deSUMOylation assays were performed by using purified recombinant His-JAK2 and GST-SENP1 proteins.
In vitro SUMOylation assay. The SUMOylation reactions were performed according to the manufacture's instruction (BML-UW8955-0001; ENZO). Briefly, 200 nM of purified HIS-JAK2 was suspended in reaction buffer (20 μl) containing Mg-ATP, SUMO E1, SUMO E2 and recombinant SUMOs. RanGAP1 (provided in the kit) was used as the substrate for positive control. The reaction was incubated at 37° C. for 60 minutes and terminated by using 20 μl of SDS loading buffer. […] The reactions were then subjected to Western blot to evaluate SUMOylation level.
Protein expression and purification. pET28a-JAK2 and its mutant was transformed in BL21 (DE3) E. coli cells by heat shot method at 42° C. and grown in Luria Broth (LB) at 37° C. E. coli cells were induced with 0.5 mM IPTG to induct protein expression. Cells were harvested by centrifugation at 5,000 g, 4° C. for 15 min and the pellet was resuspended in lysis buffer (20 mM Tris pH 7.9, 500 mM NaCl, 5 mM imidazole, 2 mM DTT and 1× protease inhibitor cocktail). Cells were then sonicated and centrifuged at 14,000 g, 4° C. for 15 min. 1 ml of Ni-NTA was added to the supernatant and incubated at 4° C. with end-to-end mixing for 2 hours and subjected to a column. The Ni-NTA resin was washed with 10 ml wash buffer (20 mM Tris pH 7.9, 250 mM NaCl, 15 mM Imidazole and 0.5 mM DTT) and eluted with 1 ml elution buffer (20 mM Tris pH 7.9, 250 mM NaCl and 1 M imidazole). The elute was then concentrated by using a protein concentrator (Thermo Scientific™ Pierce™) and resuspend in dialysis buffer (50 mM Tris pH 7.9, 50 mM NaCl, 2 mM DTT, and 10% glycerol). The purified protein was stored at −80° C. pGEX-4T1-SENP1 and its mutant were purified using following buffers: lysis buffer (1 mM DTT, and lx protease inhibitor cocktail, 800 mM NaCl, 5 mM EDTA, 50 mM Tris-pH8.0, 0.1% Triton x-100), wash buffer (800 mM NaCl, 5 mM EDTA, 50 mM Tris-pH8.0, 0.1% Triton x-100), elution buffer (40 mM glutathione, 800 mM NaCl, 5 mM EDTA, 50 mM Tris-pH8.0, 0.1% Triton x-100), dialysis buffer (50 mM Tris pH 7.9, 50 mM NaCl, 2 mM DTT, and 10% glycerol).

[1] = recombinant GST-SENP1, 3 hours, read-out: IC50 to inhibit deSUMOylation of His-JAK2 in vitro

Structure (SMILES)	thermal stabilization of SENP1-C603A proteins (SENP1-C603A)	IC50 (SENP1; in vitro, read-out: SENP1 activity was inhibited with IC50) [µM]	IC50 (SENP1; [1]) [µM]	fold more potency to inhibit deSUMOylation of His-JAK2 in vitro than Mc (SENP1; UA versus Mc) [fold]
CC1(C)CC[C@]2(C(=O)O)CC[C@]3(C)C(=CC[C@@H]4[C@@]5(C)CC[C@H](O[C@@H]6O[C@H](C(=O)O)[C@@H](O)[C@H](O[C@@H]7OC[C@@H](O)[C@H](O)[C@H]7O)[C@H]6O)C(C)(C)[C@@H]5CC[C@]43C)[C@@H]2C1 [Mc, Momordin Ic]	no longer stabilized	15.4	19.9	
C[C@H]1[C@H](C)CC[C@]2(C(=O)O)CC[C@]3(C)C(=CC[C@@H]4[C@@]5(C)CC[C@H](O)C(C)(C)[C@@H]5CC[C@]43C)[C@H]12 [UA, ursolic acid]	no longer stabilized		0.0064	3000
